Values belong to the molecule of their own block, whether it stands above or below them.
Experiments:
Assay type in all cases: biochemical
PTPN2 [1] = biological target: T1, PTPN2 (Homo sapiens, UniProt P17706); assay: RP-UFLC phosphatase assay with FAM-pStat1 peptide
T1 construct: full length human PTPN2 (TC45 variant), 6xHis-tagged
T1 sequence (P17706 1-381 limits assumed): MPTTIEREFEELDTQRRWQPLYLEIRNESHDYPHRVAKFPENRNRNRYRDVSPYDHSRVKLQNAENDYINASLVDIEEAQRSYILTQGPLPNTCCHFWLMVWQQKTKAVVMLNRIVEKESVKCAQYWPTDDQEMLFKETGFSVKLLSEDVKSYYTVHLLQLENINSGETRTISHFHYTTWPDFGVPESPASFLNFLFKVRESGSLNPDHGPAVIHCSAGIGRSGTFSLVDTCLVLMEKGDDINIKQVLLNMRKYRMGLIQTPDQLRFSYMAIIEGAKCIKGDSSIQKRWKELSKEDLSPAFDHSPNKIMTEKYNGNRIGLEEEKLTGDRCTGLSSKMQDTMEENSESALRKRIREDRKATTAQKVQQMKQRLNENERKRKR

PTPN2 [2] = biological target: T1, PTPN2; assay: RP-UFLC phosphatase assay with FAM-pStat1 peptide; time- and concentration-dependent inactivation kinetics (ki […] ^-1 min^-1)
PTPN2 [3] = biological target: T1, PTPN2; assay: dephosphorylation of chromogenic substrate by purified enzyme

Structure (SMILES): [O]=[V]([OH])([OH])[OH] [orthovanadate]
IC50 (PTPN2 [1]): ~1 µM

IC50 (PTPN2 [2]): 180 µM
Structure (SMILES): C=CS(=O)(=O)Oc1ccccc1 [PVSN, phenyl vinyl sulfonate]

Structure (SMILES): O=[N+]([O-])c1ccc(OP(=O)(O)O)cc1 [pNPP, p-nitrophenyl phosphate]
dephosphorylation of chromogenic substrate by purified enzyme (PTPN2 [3]): Purified PTPN2 was functional as demonstrated by the dephosphorylation of the non-proteinaceous and non-specific chromogenic substrate p-nitrophenyl phosphate (pNPP)

— paper PMC4455150, “A RP-UFLC Assay for Protein Tyrosine Phosphatases: Focus on Protein Tyrosine Phosphatase Non-Receptor Type 2 (PTPN2)” (Scientific Reports, 2015)
